Assay results from ChEMBL document CHEMBL5385881, “Design, synthesis, and discovery of Eudistomin Y derivatives as lysosome-targeted antiproliferation agents” (Eur J Med Chem, 2023).

How the values were obtained:
Format in all cases: functional, cell-based
A549 = assay: Cytotoxicity against human A549 cells assessed as cell inhibition measured after 72 hrs by MTT assay; conditions: A549, 72 h
LS180 = assay: Cytotoxicity against human LS180 cells assessed as cell inhibition measured after 72 hrs by MTT assay; conditions: LS180, 72 h
MDA-MB-231 = assay: Cytotoxicity against human MDA-MB-231 cells assessed as cell inhibition measured after 72 hrs by MTT assay; conditions: MDA-MB-231, 72 h
SGC-7901 = assay: Cytotoxicity against human SGC-7901 cells assessed as cell inhibition measured after 72 hrs by MTT assay; conditions: SGC-7901, 72 h
HepG2 = assay: Cytotoxicity against human HepG2 cells assessed as cell inhibition measured after 72 hrs by MTT assay; conditions: HepG2, 72 h

Row | Compound | IC50 (A549) [µM] | IC50 (LS180) [µM] | IC50 (MDA-MB-231) [µM] | IC50 (SGC-7901) [µM] | IC50 (HepG2) [µM]
1 | Cc1cccc(Cn2c3ccccc3c3ccnc(C(=O)c4ccccc4)c32)c1 | 33.6 | 19 | 56.5 | 25.4 | 31.8
2 | O=C(c1ccc(OCc2ccccc2)cc1)c1nccc2c1[nH]c1ccccc12 | 15.6 | 20.7 | 11.2 | 55.1 | 203
3 | O=C(c1ccccc1)c1nccc2c1[nH]c1ccccc12 | 74.3 | 258 | 66.1 | 345 | 244
4 | Cc1cccc(Cn2c3ccccc3c3ccnc(C(=O)c4ccc(O)cc4)c32)c1 | 26.8 | 25.5 | 65.6 | 27.5 | 38.8
5 | O=C(c1ccccc1)c1nccc2c3ccccc3n(Cc3ccc([N+](=O)[O-])cc3)c12 | 10.2 | 4.4 | 31.4 | 7.1 | 18.7
